The source of these data is patent US9023762B2, “Plant growth regulator compositions, methods of preparation and use thereof” (Valent BioSciences Corporation, priority 2011, dated 2015).

The structures appear in SMILES notation.

One data set concerns Pansy plants. Nature of the data set: Pansy shelf life extension study (sprench application). Type of data set: in vivo. Conditions: for Days of extended shelf life / S-(+)-Abscisic acid dose (mg) to extend 1 day of shelf life / S-(+)-Abscisic acid dose (mg) to extend 2 days of shelf life: drench and foliar applied; for S-(+)-Abscisic acid dose to extend 1 day shelf life: drench/foliar applied; for S-(+)-Abscisic acid dose (mg) to extend 1 day of shelf life / S-(+)-Abscisic acid dose (mg) to extend 2 days of shelf life: log-linear regression. The source says: Efficacy of the preferred composition of the present invention was also studied with Pansy plants to compare its shelf life extension effect against 10% potassium salt of S-(+)-Abscisic acid solution (ABA salt) and technical grade active ingredient of the free acid (S-(+)-Abscisic acid).
Pansy plants were obtained from local retailers as mature plants. Pansy plants were then transplanted into an 18-cell flat filled with Promix BX (available from Premier Horticulture Inc. Quakertown, Pa.) and grown for 3 days prior to treatment.
Uniform plants were selected for the study. Prior to S-(+)-Abscisic acid treatment, plants were saturated with water and then drained for about two hours. A total of 20 mL S-(+)-Abscisic acid solution, which is equivalent to about 10% of the cell volume, was applied to each plant by soil drench/foliar spray application. In the ornamental industry, this method of chemical application is commonly known as a sprench application. In this study, 17 mL solution was drench applied to root zone and 3 mL solution was foliar applied to canopy. Plants were not watered following the S-(+)-Abscisic acid treatment.
After the S-(+)-Abscisic acid treatment, plants were arranged in a randomized complete block experimental design. The plants were rated daily for the extent of wilting on a scale from 1 for no wilting to 4 for complete wilting. A rating of 2.5 was the point at which a plant was determined to be unmarketable and the previous day was recorded as the shelf life of that plant in days. The log-linear regression between S-(+)-Abscisic acid doses and the extension of shelf life over control plants was used for calculation of S-(+)-Abscisic acid dose to extend 1 day or 2 days of shelf life.

The test system of data set [1] is Tomato (variety: Rutgers) plants. Nature of the data set: Tomato transpiration inhibition study (foliar application). Type of data set: in vivo. The conditions noted are these: for Transpiration rate (% of control) Average of 3 days after treatment: foliarly applied to tomato leaves; for S-(+)-Abscisic acid doses to achieve 50% inhibition of transpiration / S-(+)-Abscisic acid dose to achieve 50% inhibition of transpiration: foliar, first 3 days after treatment; for S-(+)-Abscisic acid dose to achieve 50% inhibition of transpiration: log-linear regression; for Relative potency: transpiration inhibition. The source says:
Efficacy of the preferred composition of the present invention was studied with tomato plants to compare its transpiration inhibition effect against 10% potassium salt of S-(+)-Abscisic acid solution (ABA salt) and technical grade active ingredient of the free acid (S-(+)-Abscisic acid). Tomato (variety: Rutgers) seeds were sown in an 18-cell flat filled with Promix PGX (available from Premier Horticulture Inc. Quakertown, Pa.) for four weeks for germination and initial growth. Plants were then transplanted into pots (18 cm in diameter and 18 cm in height) filled with Promix BX (available from Premier Horticulture Inc. Quakertown, Pa.) and grown for another 5 days before treatment. During growing periods, plants received daily irrigation and weekly fertilizer (1 g/L all purpose fertilizer 20-20-20, The Scotts Company, Marysville, Ohio). S-(+)-Abscisic acid solutions of different, formulations were foliar applied to tomato plant leaves at the rate of 24 mL/6 plants. Plants were then placed in a transparent chamber with humidity controlled at relative humidity 40 to 60%. Leaf transpiration rate was measured 1, 2, 3 or 4 and 7 days after treatment using an AP4 Leaf Porometer (Dynamax, Inc., Houston, Tex.). The transpiration rate of each treatment was calculated as the percentage of that of control at each day to reduce day-to-day variation caused by changes of environmental condition such as light intensity and temperature. The log-linear regression between S-(+)-Abscisic acid doses and the average transpiration rates of first 3 days after treatment was used for calculation of S-(+)-Abscisic acid dose to achieve 50% inhibition of transpiration.

The conditions of data set [2]: cited from earlier work.
A further data set relates to canola seed. Nature of the data set: Canola emergence after seed treatment (S-ABA as ammonium salt solution, 6-benzyladenine technical powder). Conditions: for Final emergence (%) / Qrange / T50: 6-BA 0 g/cwt. Type of data set: in vivo. On the procedure:
In this example, the effect of the cytokinin 6-benzyladenine on S-(+)-Abscisic acid induced germination delay on Canola was studied. The experiment was set up as an S-(+)-Abscisic acid-dose×BA-dose factorial experiment, with four doses of S-(+)-Abscisic acid (0, 25, 50, and 100 g/cwt) and four doses of 6-benzyladenine (0, 1, 5 and 25 g/cwt) for a total of 16 treatment combinations. The treatments were made up in 1 ml samples of experimental aqueous seed treatment slurry. S-(+)-Abscisic acid was added in the form of a water solution of the ammonium salt. 6-Benzyladenine was added as technical powder. Ten μl Tween® 20 were added to each sample to help wet and suspend the 6-benzyladenine powder. All of the seed treatment slurry samples contained CP-Clear film-forming agent and Color Coat Red (available from Becker Underwood), each at 1 oz/cwt, and 0.167 oz/cwt Maxim XL fungicide (available from Syngenta). The slurry application volume was 40 oz/cwt (cwt means per 100 lbs or 45.4 kgs of seed). Ten gram samples of canola seed were treated with the experimental slurries using a Hege 11 seed treater with a six-inch bowl.
The seed was planted in plastic boxes containing 1 kg of typical agricultural slit loam. One hundred seeds were planted 2 cm deep in each plastic box, and the soil in the box was adjusted to 21% soil moisture (wet-weight basis). Two replications of the experiment were incubated under constant light in a 10° C. chamber. The soil temperature averaged 12.6° C. The boxes were watered up to the correct weight every 1-2 days, and checked for emergence. Counts of seedlings were continued until it became clear that emergence had ceased (28 days). The final count of emerged seedlings was expressed as a percentage of the 100 seeds planted.
The daily counts were converted to proportions of the final emergence of the box, and a Gompertz curve was fitted to the data from each box using SAS Proc NLIN. From the parameters of the model, median emergence time (T50) and quartile range (Qrange) were estimated for each box. Analysis of variance was performed and means calculated for each of the three responses (Final emergence, T50, Qrange).

Setting [3] is: relative to S-(+)-Abscisic acid salt = 1.
Where [4] appears, read: relative to S-(+)-Abscisic acid = 1.

Take `CC1=CC(=O)CC(C)(C)[C@@]1(O)/C=C/C(C)=C\C(=O)[O-].[K+]` [S-(+)-Abscisic acid salt]: the “Days of extended shelf life” value with Pansy plants (ABA dose 1 mg) stood at 0.50 days; with Pansy plants (ABA dose 3 mg) it was 1.17 days; in the data set with Pansy plants (ABA dose 10 mg), 1.50 days; in the data set on Pansy plants (ABA dose 30 mg), 1.83 days. The “S-(+)-Abscisic acid dose to extend 1 day shelf life” value in the data set with Pansy plants is reported as 2.83 mg/plant. Further, the “S-(+)-Abscisic acid dose (mg) to extend 1 day of shelf life” value in the data set on Pansy plants stood at 2.83 mg. Besides, the “S-(+)-Abscisic acid dose (mg) to extend 2 days of shelf life” value in the data set on Pansy plants is reported as 39.83 mg. Moreover, in the data set with Pansy plants (setting [3]), the “Relative potency (1 day)” value came out at 1. Also, in the data set with Pansy plants (setting [3]), the “Relative potency (2 days)” value was determined as 1. Moreover, the “Transpiration rate (% of control) Average of 3 days after treatment” value was 70 % of control in data set [1] (ABA dose 1 mg), 60 % of control in data set [1] (ABA dose 3 mg) and 50 % of control in data set [1] (ABA dose 10 mg). In addition, the “S-(+)-Abscisic acid doses to achieve 50% inhibition of transpiration” value in data set [1] worked out at 10.13 mg/plant. Also, the “S-(+)-Abscisic acid dose to achieve 50% inhibition of transpiration” value in data set [1] is recorded as 10.13 mg. In data set [1] (setting [3]), the Relative potency was 1.

Regarding `CC1=CC(=O)CC(C)(C)[C@@]1(O)/C=C/C(C)=C\C(=O)O` [S-(+)-Abscisic acid], the “Days of extended shelf life” value was 0 days with Pansy plants (ABA dose 1 mg), 0.67 days in the data set on Pansy plants (ABA dose 3 mg), 0.83 days in the data set on Pansy plants (ABA dose 10 mg) and 1.67 days in the data set with Pansy plants (ABA dose 30 mg). For the same molecule, the “S-(+)-Abscisic acid dose to extend 1 day shelf life” value in the data set on Pansy plants was determined as 8.68 mg/plant. Moreover, in the data set with Pansy plants, the “S-(+)-Abscisic acid dose (mg) to extend 1 day of shelf life” value is 8.68 mg. Besides, the “S-(+)-Abscisic acid dose (mg) to extend 2 days of shelf life” value in the data set on Pansy plants stood at 79.62 mg. In the data set with Pansy plants (setting [4]), the “Relative potency (2 days)” value is on record as 1. In addition, the “Transpiration rate (% of control) Average of 3 days after treatment” value in data set [1] (ABA dose 1 mg) is given as 73 % of control; in data set [1] (ABA dose 3 mg), 63 % of control; in data set [1] (ABA dose 10 mg) it was 54 % of control. Also, the “S-(+)-Abscisic acid doses to achieve 50% inhibition of transpiration” value in data set [1] was 15.02 mg/plant. For the same molecule, the “S-(+)-Abscisic acid dose to achieve 50% inhibition of transpiration” value in data set [1] stood at 15.02 mg. The molecule further registered a Relative potency in data set [1] (setting [4]) of 1. For the same molecule, the “highest concentration that can be achieved in pure water” value in data set [2] (pure water at room temperature) is on record as “about 3000 ppm”. Also, the “solubility limit in the tank-mix” value in data set [2] (tank-mix) is listed as “up to 3000 ppm”. In addition, in the data set with canola seed (S-(+)-Abscisic acid dose of 100 g/cwt), the “final emergence in words” value was “roughly cut in half”. The “Final emergence (%)” value in the data set with canola seed (S-ABA 25 g/cwt) was 92.3%; in the data set on canola seed (S-ABA 50 g/cwt), 68.9%; with canola seed (S-ABA 100 g/cwt) it was 53.5%. The entries for the “Qrange” value in the data set on canola seed (S-ABA 25 g/cwt), with canola seed (S-ABA 50 g/cwt) and with canola seed (S-ABA 100 g/cwt) were 3.26 days, 4.27 days and 4.27 days, respectively. In addition, the “T50” value in the data set on canola seed (S-ABA 25 g/cwt) was found to be 9.15 days; with canola seed (S-ABA 50 g/cwt), 11.20 days; in the data set with canola seed (S-ABA 100 g/cwt), 12.74 days.
